US7202261B2, “Calcilytic compounds” (NPS Pharmaceuticals, Inc., priority 1996, dated 2007)
pIC50: −log10 of the molar value. Structures can show the parent of a compound that is named as a salt.

These compounds were tested against T1, human calcium receptor (Homo sapiens, UniProt P41180) (assay: Calcium Receptor Inhibitor Assay). Settings: not given.
T1 construct: expressed in transfected cells
T1 sequence (P41180 20-1078): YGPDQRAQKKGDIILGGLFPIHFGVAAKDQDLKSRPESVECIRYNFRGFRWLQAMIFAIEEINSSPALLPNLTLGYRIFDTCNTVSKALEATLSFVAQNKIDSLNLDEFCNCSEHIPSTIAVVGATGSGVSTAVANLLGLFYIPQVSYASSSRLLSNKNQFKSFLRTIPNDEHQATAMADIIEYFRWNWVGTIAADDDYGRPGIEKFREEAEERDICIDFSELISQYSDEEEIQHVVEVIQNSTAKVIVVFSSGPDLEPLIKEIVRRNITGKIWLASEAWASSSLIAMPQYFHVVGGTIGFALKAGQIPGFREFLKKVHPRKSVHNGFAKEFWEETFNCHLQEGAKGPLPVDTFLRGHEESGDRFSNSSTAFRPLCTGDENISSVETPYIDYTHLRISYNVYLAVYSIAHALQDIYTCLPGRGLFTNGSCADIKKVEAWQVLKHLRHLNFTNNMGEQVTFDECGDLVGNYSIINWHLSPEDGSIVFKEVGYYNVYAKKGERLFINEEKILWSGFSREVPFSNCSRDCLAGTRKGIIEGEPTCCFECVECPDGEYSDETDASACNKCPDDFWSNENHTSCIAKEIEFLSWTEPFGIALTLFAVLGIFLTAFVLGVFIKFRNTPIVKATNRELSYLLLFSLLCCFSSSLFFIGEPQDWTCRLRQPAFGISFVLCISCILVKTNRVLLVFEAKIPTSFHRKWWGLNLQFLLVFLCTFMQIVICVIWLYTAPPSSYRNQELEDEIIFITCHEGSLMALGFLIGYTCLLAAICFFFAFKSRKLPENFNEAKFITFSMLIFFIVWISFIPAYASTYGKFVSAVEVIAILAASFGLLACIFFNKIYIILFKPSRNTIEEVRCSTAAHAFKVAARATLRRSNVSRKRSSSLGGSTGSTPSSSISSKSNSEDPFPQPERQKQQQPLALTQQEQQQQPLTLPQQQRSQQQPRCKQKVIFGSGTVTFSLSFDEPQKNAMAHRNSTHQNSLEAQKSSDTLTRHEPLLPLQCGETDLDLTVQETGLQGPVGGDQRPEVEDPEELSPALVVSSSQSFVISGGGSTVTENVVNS
Type: cell-based
Summary of the method: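 Intracellular Ca^2+ measured with fluo-3 at 37° C in stirred cell suspension. Buffer held 1 mM CaCl2 and 1 mg/mL D-glucose. Compound or vehicle added 90 seconds before extracellular Ca^2+ was raised from 1 to 2 mM, and calcilytic activity scored as concentration-dependent block of the intracellular Ca^2+ rise.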

| Compound | pIC50 |
| --- | --- |
| COc1ccc(CC(C)(C)NCC(O)COC2CCCCC2C#N)cc1 (centres unmarked) [Compound 131, N-[2-hydroxy-3-(2-cyano-cyclohexyloxy)propyl-1,1-dimethyl-2-(4-methoxyphenyl)ethylamine Hydrochloride] | > 6.00 |

Same assay, conditions: HEK 293 4.0–7 cells stably expressing the human calcium receptor; fluo-3; read-out: IC50 for blocking increases of intracellular Ca2+ elicited by extracellular Ca2+

| Compound | pIC50 |
| --- | --- |
| COc1ccc(CC(C)(C)NCC(O)COCCCCc2ccccc2)cc1 (centres unmarked) [Compound 127, N-[2-hydroxy-3-(4-phenyl-butanoxy)propyl]-1,1-dimethyl-2-(4-methoxyphenyl)ethylamine] | > 6.00 |
| COc1ccc(CC(C)(C)NCC(O)COc2ccccc2)cc1F (centres unmarked) [Compound 128, N-(2-hydroxy-3-phenoxypropyl)-1,1-dimethyl-2-(3-fluoro-4-methoxyphenyl) ethylamine] | > 5.00 |
| COc1ccc(CC(C)(C)NCC(O)COc2ccccc2)c(F)c1 (centres unmarked) [Compound 129, N-(2-hydroxy-3-phenoxypropyl)-1,1-dimethyl-2-(2-fluoro-4-methoxyphenyl)ethylamine Hydrochloride] | > 6.00 |
| COc1ccc(CC(C)(C)NCC(O)COc2cccc3c(OC)cccc23)cc1 (centres unmarked) [Compound 130, N-[2-hydroxy-3-(5-methoxy-1-napthoxy)propyl]-1,1-dimethyl-2-(4-methoxyphenyl)ethylamine Hydrochloride] | > 6.00 |
| COc1ccc(CC(C)(C)NCC(O)COc2ccc(OC)c(OC)c2)cc1 (centres unmarked) [Compound 132, N-[2-hydroxy-3-(3,4-dimethoxyphenoxy)propyl]-1,1-dimethyl-2-(4-methoxyphenyl)ethylamine Hydrochloride] | > 5.00 |
| COc1ccc(CC(C)(C)NCC(O)COc2cc(OC)cc(OC)c2)cc1 (centres unmarked) [Compound 133, N-[2-hydroxy-3-(3,5-dimethoxyphenoxy)propyl]-1,1-dimethyl-2-(4-methoxyphenyl)ethylamine Hydrochloride] | > 6.00 |
| COC(=O)c1ccccc1OCC(O)CNC(C)(C)Cc1ccc(OC)cc1 (centres unmarked) [Compound 134, N-[2-hydroxy-3-(2-carbomethoxyphenoxy)propyl]-1,1-dimethyl-2-(4-methoxyphenyl)ethylamine Hydrochloride] | > 6.00 |
| COc1ccc(CC(C)(C)NCC(O)COc2ccc(C)cc2)cc1 (centres unmarked) [Compound 135, N-[2-hydroxy-3-(4-methylphenoxy)propyl]-1,1-dimethyl-2-(4-methoxyphenyl)ethylamine Hydrochloride] | > 6.00 |
| COc1ccc(CC(C)(C)NCC(O)COc2cccc(Cl)c2Cl)cc1 (centres unmarked) [Compound 136, N-[2-hydroxy-3-(2,3-dichlorophenoxy)propyl]-1,1-dimethyl-2-(4-methoxyphenyl)ethylamine Hydrochloride] | > 6.00 |
| COc1ccc(CC(C)(C)NCC(O)COc2cc(Cl)cc(Cl)c2)cc1 (centres unmarked) [Compound 137, N-[2-hydroxy-3-(3,5-dichlorophenoxy)propyl]-1,1-dimethyl-2-(4-methoxyphenyl)ethylamine Hydrochloride] | > 6.00 |
| COc1ccc(CC(C)(C)NCC(O)COc2ccc(Cl)cc2Cl)cc1 (centres unmarked) [Compound 138, N-[2-hydroxy-3-(2,4-dichlorophenoxy)propyl]-1,1-dimethyl-2-(4-methoxyphenyl)ethylamine Hydrochloride] | > 6.00 |
| COc1ccc(CC(C)(C)NCC(O)COc2ccc(Cl)c(Cl)c2)cc1 (centres unmarked) [Compound 139, N-[2-hydroxy-3-(3,4-dichlorophenoxy)propyl]-1,1-dimethyl-2-(4-methoxyphenyl)ethylamine Hydrochloride] | > 6.00 |
| COc1ccc(CC(C)(C)NCC(O)COc2cc(Cl)ccc2Cl)cc1 (centres unmarked) [Compound 140, N-[2-hydroxy-3-(2,5-dichlorophenoxy)propyl]-1,1-dimethyl-2-(4-methoxyphenyl)ethylamine Hydrochloride] | > 6.00 |
| CCc1ccc(OCC(O)CNC(C)(C)Cc2ccc(OC)cc2)cc1 (centres unmarked) [Compound 141, N-[2-hydroxy-3-(4-ethylphenoxy)propyl]-1,1-dimethyl-2-(4-methoxyphenyl)ethylamine Hydrochloride] | > 6.00 |
| COc1ccc(CC(C)(C)NCC(O)COc2ccccc2C#N)cc1 (centres unmarked) [Compound 142, N-[2-hydroxy-3-(2-cyanophenoxy)propyl]-1,1-dimethyl-2-(4-methoxyphenyl)ethylamine Hydrochloride] | > 6.00 |
| COc1ccc(CC(C)(C)NCC(O)COc2cccc([N+](=O)[O-])c2)cc1 (centres unmarked) [Compound 143, N-[2-hydroxy-3-(3-nitrophenoxy)propyl]-1,1-dimethyl-2-(4-methoxyphenyl)ethylamine Hydrochloride] | > 6.00 |

| Compound | pIC50 |
| --- | --- |
| CCOc1ccc(OCC(O)CNC(C)(C)Cc2ccc(OC)cc2)cc1 (centres unmarked) [Compound 144, N-[2-hydroxy-3-(4-ethoxyphenoxy)propyl]-1,1-dimethyl-2-(4-methoxyphenyl)ethylamine Hydrochloride] | > 5.00 |
| COc1ccc(CC(C)(C)NCC(O)COc2ccc(C(C)C)cc2)cc1 (centres unmarked) [Compound 145, N-[2-hydroxy-3-(4-iso-propylphenoxy)propyl]-1,1-dimethyl-2-(4-methoxyphenyl)ethylamine Hydrochloride] | > 6.00 |
| COc1ccc(CC(C)(C)NCC(O)COc2cccc(C(C)C)c2)cc1 (centres unmarked) [Compound 146, N-[2-hydroxy-3-(3-iso-propylphenoxy)propyl]-1,1-dimethyl-2-(4-methoxyphenyl)ethylamine Hydrochloride] | > 6.00 |
| CCOc1cccc(OCC(O)CNC(C)(C)Cc2ccc(OC)cc2)c1 (centres unmarked) [Compound 147, N-[2-hydroxy-3-(3-ethoxyphenoxy)propyl]-1,1-dimethyl-2-(4-methoxyphenyl)ethylamine Hydrochloride] | > 5.00 |
| CCCc1ccccc1OCC(O)CNC(C)(C)Cc1ccc(OC)cc1 (centres unmarked) [Compound 148, N-[2-hydroxy-3-(2-n-propylphenoxy)propyl]-1,1-dimethyl-2-(4-methoxyphenyl)ethylamine Hydrochloride] | > 6.00 |
| CCCc1ccc(OCC(O)CNC(C)(C)Cc2ccc(OC)cc2)cc1 (centres unmarked) [Compound 149, N-[2-hydroxy-3-(4-n-propylphenoxy)propyl]-1,1-dimethyl-2-(4-methoxyphenyl)ethylamine Hydrochloride] | > 6.00 |
| CCc1cccc(OCC(O)CNC(C)(C)Cc2ccc(OC)cc2)c1 (centres unmarked) [Compound 150, N-[2-Hydroxy-3-(3-ethylphenoxy)propyl)-1,1-dimethyl-2-(4-methoxyphenyl)ethylamine Hydrochloride] | > 6.00 |
| CCc1ccccc1OCC(O)CNC(C)(C)Cc1ccc(OC)cc1 (centres unmarked) [Compound 151, N-[2-hydroxy-3-(2-ethylphenoxy)propyl]-1,1-dimethyl-2-(4-methoxyphenyl)ethylamine Hydrochloride] | > 6.00 |
| COc1ccc(CC(C)(C)NCC(O)COc2ccc(OC(F)(F)F)cc2)cc1 (centres unmarked) [Compound 152, N-[2-hydroxy-3-(4-trifluoromethoxyphenoxy)propyl)-1,1-dimethyl-2-(4-methoxyphenyl)ethylamine Hydrochloride] | > 5.00 |
| COc1ccc(CC(C)(C)NCC(O)COc2ccccc2C(C)C)cc1 (centres unmarked) [Compound 153, N-[2-hydroxy-3-(2-iso-propylphenoxy)propyl]-1,1-dimethyl-2-(4-methoxyphenyl)ethylamine Hydrochloride] | > 6.00 |
| COc1ccc(CC(C)(C)NCC(O)COc2cccc(OC(F)(F)F)c2)cc1 (centres unmarked) [Compound 154, N-[2-hydroxy-3-(3-trifluoromethoxyphenoxy)propyl]-1,1-dimethyl-2-(4-methoxyphenyl)ethylamine Hydrochloride] | > 6.00 |
| COc1ccc(CC(C)(C)NCC(O)COc2c(Cl)cccc2Cl)cc1 (centres unmarked) [Compound 155, N-[2-hydroxy-3-(2,6-dichlorophenoxy)propyl]-1,1-dimethyl-2-(4-methoxyphenyl)ethylamine Hydrochloride] | > 5.00 |
| COc1ccc(CC(C)(C)NCC(O)COc2cc(C(F)(F)F)cc(C(F)(F)F)c2)cc1 (centres unmarked) [Compound 156, N-[2-hydroxy-3-(3,5-bistrifluoromethylphenoxy)propyl]-1,1-dimethyl-2-(4-methoxyphenyl)ethylamine Hydrochloride] | > 6.00 |
| COc1ccc(CC(C)(C)NCC(O)COc2cc(Cl)cc(OC)c2)cc1 (centres unmarked) [Compound 157, N-[2-hydroxy-3-(3-chloro-5-methoxyphenoxy)propyl]-1,1-dimethyl-2-(4-methoxyphenyl)ethylamine Hydrochloride] | > 6.00 |
| COc1ccc(CC(C)(C)NCC(O)COc2ccccc2[N+](=O)[O-])cc1 (centres unmarked) [Compound 159, N-[2-hydroxy-3-(2-nitrophenoxy)propyl]-1,1-dimethyl-2-(4-methoxyphenyl)ethylamine Hydrochloride] | > 6.00 |
